Source: patent publication US20230027219A1, “Skin Care Compositions and Methods of Use Thereof” (Unigen, Inc., priority 2013, published 2023)
Like-named read-outs stand apart in the source and are kept apart here.

Tests used:
3T3-L1 cells = test: Lipid accumulation assay in adipocytes (Oil red O staining); format: cell-based, Mouse; settings: for inhibition at 0.005 µg/mL / inhibition at 0.01 µg/mL / inhibition at 0.05 µg/mL / inhibition at 0.1 µg/mL / inhibition at 0.5 µg/mL: Mus musculus, read-out: Inhibition (%) of lipid accumulation; for effect on lipid accumulation, in words: over the doses tested, 3T3-L1, Oil red O
Method: Mouse embryo fibroblast 3T3-L1 cells (purchased from American Type Culture Collection) were cultured in Dulbecco's modified Eagle's medium (DMEM) (GIBCO) containing 10% bovine calf serum until confluent. Two days post-confluence (D0), the cells were stimulated to differentiate into an adipocyte-like phenotype by adding DMEM containing 10% fetal bovine serum (FBS), 5 μg/ml insulin, 0.5 mM 3-isobutyl-1-methylxanthine (IBMX) and 1 μM dexamethasone for two days (D2). Cells were then maintained in 10% FBS/DMEM medium with 5 μg/ml insulin for another two days (D4), followed by culturing with 10% FBS/DMEM medium for four days (D8). Test samples at various concentrations were added to the cells from Day 0 to Day 8 of adipogenesis, during which the medium was exchanged every 2 days with fresh medium containing the test sample. On Day 8, lipid droplets in cells were stained with Oil red O (ORO) and signal measured at 510 nm.
Briefly, three concentrations of Annona AS-EE3 (100% EtOH) and AS-EE4 (70% EtOH) extracts (0.1, 0.5 and 1 μg/ml) and positive control TNF-α(10 ng/mL) were used to treat 3T3-L1 cells during the differentiation period (from Day 0 to Day 8 of adipogenesis). Cell culture medium containing extracts was changed every 2 days and ORO staining was used to detect lipid droplet accumulation in cells.
Three concentrations of the Annona hexane extracts (0.05, 0.1 and 0.5 μg/ml) were used to treat 3T3-L1 cells during the differentiation period (from Day 0 to Day 8 of adipogenesis), then stained for lipid accumulation on Day 8.
Similar to the previous extracts, each EtOAc extract was tested at three doses of 0.05 μg/ml, 0.1 μg/ml and 0.5 μg/ml.
Similar to the previous extracts, each of the CO2 extracts were tested at the following six doses of 0.0625 μg/ml, 0.125 μg/ml, 0.25 μg/ml, 0.35 μg/ml, 0.5 μg/ml, and 1 μg/ml.

3T3-L1 pre-adipocytes = test: Intracellular triglyceride (TG) content assay; format: cell-based, Mouse; settings: 10 ng/ml; 3T3-L1, 8 days
Method: […] The cells were washed with PBS, scraped with homogenizing solutions. The residual cell lysate was centrifuged at 3000 g for 5 min to remove fat layers. The supernatants were assayed. The triglyceride levels were measured by using a commercial kit according to the manufacturer's instructions (#10010303, Cayman Chem., USA). As adipocytes differentiate, their intracellular levels of triglyceride increase continuously.

[1] = tested on: human subcutaneous preadipocytes; test: Differentiation assay in human subcutaneous adipocytes (glycerol liberated from triglyceride); format: cell-based
Method: The inhibition of lipid accumulation and differentiation assays examined the ability of compounds to inhibit the differentiation of human subcutaneous preadipocytes into adipocytes. Cells were grown to confluency such that all cells were synchronized and then differentiated. Cryopreserved preadipocytes were passaged with preadipocyte medium (PM-1). Cells were fed every other day with PM-1 until confluent. To induce differentiation, PM-1 medium was replaced with differentiation medium (DM-2) including insulin, dexamethasone, isobutyl methylxanthine, PPAR-γ agonist, TNF-α and test compounds at day two. After 7 days, the medium was changed to Adipocyte medium without the test compounds. On day 16 of the assay, cytotoxicity and lipid accumulation were measured. Medium was removed, leaving 50 μl in each well. 10 μl Cell Titer Blue reagent was added to each well. Cells were incubated at 37° C. for 2 hours. […] Fluorescence was measured at excitation 560 nm/emission 590 nm. […] The optical density was read at 540 nm after 15 minutes. […]
The lipid accumulation assay of Example 28 was carried out with Annona squamosa extracts. […] After 2 weeks of treatment, cells were washed with PBS, lysed and triglyceride measured by total TG assay kit (Zen-bio). The reagents contain microbial lipase and the amount of glycerol liberated from triglyceride was measured. […]

Compound | inhibition at 0.005 µg/mL (3T3-L1 cells; 3T3-L1, 0 h) [%] | inhibition at 0.01 µg/mL (3T3-L1 cells; 3T3-L1, 0 h) [%] | inhibition at 0.05 µg/mL (3T3-L1 cells; 3T3-L1, 0 h) [%] | inhibition at 0.1 µg/mL (3T3-L1 cells; 3T3-L1, 0 h) [%] | inhibition at 0.5 µg/mL (3T3-L1 cells; 3T3-L1, 0 h) [%] | effect on lipid accumulation, in words (3T3-L1 cells) | inhibition at 0.005 µg/mL (3T3-L1 cells; 0 h, 0.005 μg/ml, 3T3-L1, treated Day 0-8, Oil red O) [%] | inhibition at 0.01 µg/mL (3T3-L1 cells; 0 h, 0.01 μg/ml, 3T3-L1, treated Day 0-8, Oil red O) [%] | inhibition at 0.05 µg/mL (3T3-L1 cells; 0 h, 0.05 μg/ml, 3T3-L1, treated Day 0-8, Oil red O) [%] | inhibition at 0.1 µg/mL (3T3-L1 cells; 0 h, 0.1 μg/ml, 3T3-L1, treated Day 0-8, Oil red O) [%] | inhibition at 0.5 µg/mL (3T3-L1 cells; 0 h, 0.5 μg/ml, 3T3-L1, treated Day 0-8, Oil red O) [%] | Inhibition (%) of intracellular triglyceride level (3T3-L1 pre-adipocytes) [%] | Concentration of Glycerol ([1]; 0.01 μg/ml, control 208.28) [µM] | Concentration of Glycerol ([1]; TNF-α 0.01 μg/mL, control 208.28 (Table 32))
CCCCCCC(O)CCCC(O)C1CCC(C2CCC(C(O)CCCCCCCCCCCCC3=CC(C)OC3=O)O2)O1 (stereo not drawn) [SA1, Squamocin] | 10.7 ± 10.9 | 37.8 ± 4.4 | 72.3 ± 3.1 | 71.6 ± 1.9 | 66.7 ± 4.7 | high efficacy in a dose dependent manner |  |  |  |  |  |  |  | 
C=C1C[C@@]23CC[C@H]4[C@@](C)(CCC[C@@]4(C)C(=O)O)[C@@H]2CC[C@@H]1C3 [SA2, kaurenoic acid] |  |  |  |  |  | weaker effect | 2 ± 21.9 | 0 | 9.8 ± 13.6 | 12.6 ± 11.7 | 7.8 ± 17.1 |  |  | 
TNF-α [reference compound] |  |  |  |  |  |  |  |  |  |  |  | 55.1 | 4.40 | 4.40
